Target: T1, EED (Homo sapiens, UniProt O75530)
T1 construct: 2×10^5 Hela cells were injected into a 12-well plate; endogenous in cells; host or cells: HeLa
Experiment: EED Proteolytic Activity Evaluation 2 (western blot, Hela cells)
Assay type: cell-based
Settings: 1 nM, 10 nM, 100 nM and 1000 nM, 20 hours of treatment
Description: [Experiment 2] EED Proteolytic Activity Evaluation 2
In order to evaluate the EED proteolytic activity of the compound according to the present invention, an experiment was conducted as follows.
Specifically, 2×10^5 Hela cells were injected into a 12-well plate, and after 8 hours of stabilization, each well was treated with the example compounds to have final concentrations of 1 nM, 10 nM, 100 nM, and 1000 nM. One well was treated with the volume of DMSO contained in the sample corresponding to the highest concentration in the experimental group. After 20 hours of treatment, the cells were collected and lysed using 80 μl of SDS Lysis buffer (50 mM Tris pH8.0, 1% SDS, 1 mM EDTA, 0.5 mM PMSF, and protease inhibitor cocktail) and then sonication (30 sec on/59 sec off), 5 cycles) to prepare a cell lysate, followed by protein quantification through BCA, followed by Western blot, and the results are shown in Table 3. (Maximum EED degradation rate: A: >50%, B: 25-50%, C: <25%)

T1 sequence (O75530 whole entry): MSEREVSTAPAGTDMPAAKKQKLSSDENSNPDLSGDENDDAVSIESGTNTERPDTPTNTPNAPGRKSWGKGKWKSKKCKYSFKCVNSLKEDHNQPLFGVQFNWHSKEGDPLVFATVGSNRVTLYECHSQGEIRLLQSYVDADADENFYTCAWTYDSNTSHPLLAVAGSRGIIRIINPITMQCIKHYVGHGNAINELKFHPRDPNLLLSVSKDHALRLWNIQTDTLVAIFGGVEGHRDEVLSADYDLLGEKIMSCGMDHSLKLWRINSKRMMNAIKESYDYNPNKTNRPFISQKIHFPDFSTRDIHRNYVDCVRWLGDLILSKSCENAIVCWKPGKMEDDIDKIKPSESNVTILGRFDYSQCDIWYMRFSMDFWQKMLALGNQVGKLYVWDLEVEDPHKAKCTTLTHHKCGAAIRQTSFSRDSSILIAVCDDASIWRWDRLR

Row | Compound | EED degradation rate (Maximum EED degradation rate)
1 | Cc1cccc(F)c1CN1C[C@H](c2ccc(N3CCN(C(=O)COCCOCCNC(=O)CNc4ccc5c(c4)C(=O)N(C4CCC(=O)NC4=O)C5=O)CC3)cc2)[C@@H](N(C)C)C1 (stereo partly drawn) [Example 121, N-(2-(2-(2-(4-(4-((3S,4R)-4-(dimethylamino)-1-(2-fluoro-6-methylbenzyl)pyrrolidin-3-yl)phenyl)piperazin-1-yl)-2-oxoethoxy)ethoxy)ethyl)-2-((2-(2,6-dioxopiperidin-3-yl)-1,3-dioxoisoindolin-5-yl)amino)acetamide] | A (A: >50%)
2 | Cc1cccc(F)c1CN1C[C@H](c2ccc(N3CCN(C(=O)COCCOCCOCCNC(=O)CNc4ccc5c(c4)C(=O)N(C4CCC(=O)NC4=O)C5=O)CC3)cc2)[C@@H](N(C)C)C1 (stereo partly drawn) [Example 122, N-(2-(2-(2-(2-(4-(4-((3S,4R)-4-(dimethylamino)-1-(2-fluoro-6-methylbenzyl)pyrrolidin-3-yl)phenyl)piperazin-1-yl)-2-oxoethoxy)ethoxy)ethoxy)ethyl)-2-((2-(2,6-dioxopiperidin-3-yl)-1,3-dioxoisoindolin-5-yl)amino)acetamide] | A (A: >50%)
3 | Cc1cccc(F)c1CN1C[C@H](c2ccc(N3CCN(C(=O)CCCNc4cccc5c4C(=O)N(C4CCC(=O)NC4=O)C5=O)CC3)cc2)[C@@H](N(C)C)C1 (stereo partly drawn) [Example 123, 4-((4-(4-(4-((3S,4R)-4-(dimethylamino)-1-(2-fluoro-6-methylbenzyl)pyrrolidin-3-yl)phenyl)piperazin-1-yl)-4-oxobutyl)amino)-2-(2,6-dioxopiperidin-3-yl)isoindolin-1,3-dione] | B (B: 25-50%)
4 | Cc1cccc(F)c1CN1C[C@H](c2ccc(N3CCN(C(=O)CCCNc4ccc5c(c4)C(=O)N(C4CCC(=O)NC4=O)C5=O)CC3)cc2)[C@@H](N(C)C)C1 (stereo partly drawn) [Example 124, 5-((4-(4-(4-((3S,4R)-4-(dimethylamino)-1-(2-fluoro-6-methylbenzyl)pyrrolidin-3-yl)phenyl)piperazin-1-yl)-4-oxobutyl)amino)-2-(2,6-dioxopiperidin-3-yl)isoindolin-1,3-dione] | B (B: 25-50%)
5 | Cc1cccc(F)c1CN1C[C@H](c2ccc(N3CCN(C(=O)CCCCCCCNc4cccc5c4C(=O)N(C4CCC(=O)NC4=O)C5=O)CC3)cc2)[C@@H](N(C)C)C1 (stereo partly drawn) [Example 125, 4-((8-(4-(4-((3S,4R)-4-(dimethylamino)-1-(2-fluoro-6-methylbenzyl)pyrrolidin-3-yl)phenyl)piperazin-1-yl)-8-oxooctyl)amino)-2-(2,6-dioxopiperidin-3-yl)isoindolin-1,3-dione] | A (A: >50%)
6 | Cc1cccc(F)c1CN1C[C@H](c2ccc(N3CCN(C(=O)CCCCCCCNc4ccc5c(c4)C(=O)N(C4CCC(=O)NC4=O)C5=O)CC3)cc2)[C@@H](N(C)C)C1 (stereo partly drawn) [Example 126, 5-((8-(4-(4-((3S,4R)-4-(dimethylamino)-1-(2-fluoro-6-methylbenzyl)pyrrolidin-3-yl)phenyl)piperazin-1-yl)-8-oxooctyl)amino)-2-(2,6-dioxopiperidin-3-yl)isoindolin-1,3-dione] | B (B: 25-50%)
7 | O=C1CCC(N2C(=O)c3ccc(NCC(=O)N4CCC(CN5CCC(n6cc(-c7cnc(NCc8ccco8)n8cnnc78)cn6)CC5)CC4)cc3C2=O)C(=O)N1 (centres unmarked) [Example 127, 2-(2,6-dioxopiperidin-3-yl)-5-((2-(4-((4-(4-(5-((furan-2-ylmethyl)amino)-[1,2,4]triazolo[4,3-c]pyrimidin-8-yl)-1H-pyrazol-1-yl)piperidin-1-yl)methyl)piperidin-1-yl)-2-oxoethyl)amino)isoindolin-1,3-dione] | C (C: <25%)
8 | O=C1CCC(n2nnc3ccc(NCC(=O)N4CCC(CN5CCC(n6cc(-c7cnc(NCc8ccco8)n8cnnc78)cn6)CC5)CC4)cc3c2=O)C(=O)N1 (centres unmarked) [Example 128, 3-(6-((2-(4-((4-(4-(5-((furan-2-ylmethyl)amino)-[1,2,4]triazolo[4,3-c]pyrimidin-8-yl)-1H-pyrazol-1-yl)piperidin-1-yl)methyl)piperidin-1-yl)-2-oxoethyl)amino)-4-oxobenzo[d][1,2,3]triazin-3 (4H)-yl)piperidin-2,6-dione] | C (C: <25%)
9 | O=C(CNc1ccc2c(c1)C(=O)N(C1CCC(=O)NC1=O)C2=O)NCCOCCOCCN1CCC(n2cc(-c3cnc(NCc4ccco4)n4cnnc34)cn2)CC1 (centres unmarked) [Example 129, 2-((2-(2,6-dioxopiperidin-3-yl)-1,3-dioxoisoindolin-5-yl)amino)-N-(2-(2-(2-(4-(4-(5-((furan-2-ylmethyl)amino)-[1,2,4]triazolo[4,3-c]pyrimidin-8-yl)-1H-pyrazol-1-yl)piperidin-1-yl)ethoxy)ethoxy)ethyl)acetamide] | C (C: <25%)
10 | O=C(CNc1ccc2nnn(C3CCC(=O)NC3=O)c(=O)c2c1)NCCOCCOCCN1CCC(n2cc(-c3cnc(NCc4ccco4)n4cnnc34)cn2)CC1 (centres unmarked) [Example 130, 2-((3-(2,6-dioxopiperidin-3-yl)-4-oxo-3,4-dihydrobenzo[d][1,2,3]triazin-6-yl)amino)-N-(2-(2-(2-(4-(4-(5-((furan-2-ylmethyl)amino)-[1,2,4]triazolo[4,3-c]pyrimidin-8-yl)-1H-pyrazol-1-yl)piperidin-1-yl)ethoxy)ethoxy)ethyl)acetamide] | C (C: <25%)
11 | Cc1cccc(F)c1CN1C[C@H](c2ccc(N3CCN(CC4CCN(c5ccc6c(c5)C(=O)N(C5CCC(=O)NC5=O)C6=O)CC4)CC3)cc2)[C@@H](N(C)C)C1 (stereo partly drawn) [Example 131, 5-(4-((4-(4-((3S,4R)-4-(dimethylamino)-1-(2-fluoro-6-methylbenzyl)pyrrolidin-3-yl)phenyl)piperazin-1-yl)methyl)piperidin-1-yl)-2-(2,6-dioxopiperidin-3-yl)isoindolin-1,3-dione] | A (A: >50%)
12 | Cc1cccc(F)c1CN1C[C@H](c2ccc(N3CCN(C(=O)CC4CCN(c5ccc6c(c5)C(=O)N(C5CCC(=O)NC5=O)C6=O)CC4)CC3)cc2)[C@@H](N(C)C)C1 (stereo partly drawn) [Example 132, 5-(4-(2-(4-(4-((3S,4R)-4-(dimethylamino)-1-(2-fluoro-6-methylbenzyl)pyrrolidin-3-yl)phenyl)piperazin-1-yl)-2-oxoethyl)piperidin-1-yl)-2-(2,6-dioxopiperidin-3-yl)isoindolin-1,3-dione] | A (A: >50%)
13 | Cc1cccc(F)c1CN1C[C@H](c2ccc(N3CCN(C(=O)CCC4CCN(c5ccc6c(c5)C(=O)N(C5CCC(=O)NC5=O)C6=O)CC4)CC3)cc2)[C@H](N(C)C)C1 (stereo partly drawn) [Example 133, 5-(4-(3-(4-(4-((3S,4S)-4-(dimethylamino)-1-(2-fluoro-6-methylbenzyl)pyrrolidin-3-yl)phenyl)piperazin-1-yl)-3-oxopropyl)piperidin-1-yl)-2-(2,6-dioxopiperidin-3-yl)isoindolin-1,3-dione] | A (A: >50%)
14 | Cc1cccc(F)c1CN1C[C@H](c2ccc(N3CCN(CC4CCN(CC5CCN(c6ccc7c(c6)C(=O)N(C6CCC(=O)NC6=O)C7=O)CC5)CC4)CC3)cc2)[C@@H](N(C)C)C1 (stereo partly drawn) [Example 134, 5-(4-((4-((4-(4-((3S,4R)-4-(dimethylamino)-1-(2-fluoro-6-methylbenzyl)pyrrolidin-3-yl)phenyl)piperazin-1-yl)methyl)piperidin-1-yl)methyl)piperidin-1-yl)-2-(2,6-dioxopiperidin-3-yl)isoindolin-1,3-dione] | B (B: 25-50%)
